For series [1], the target named is Sodium-dependent serotonin transporter (Rattus norvegicus, UniProt P31652). In kind it is functional.
Description: Inhibition of serotonin reuptake in rat whole brains without cerebellum
Series [2] has as its target Norepinephrine transporter (Rattus norvegicus, UniProt Q9WTR4).
Description: Inhibition of norepinephrine reuptake in rat whole brains minus cerebellar
For a further series, the target named is T1, Acetylcholinesterase (Rattus norvegicus, UniProt P37136).
T1 sequence (P37136 whole entry): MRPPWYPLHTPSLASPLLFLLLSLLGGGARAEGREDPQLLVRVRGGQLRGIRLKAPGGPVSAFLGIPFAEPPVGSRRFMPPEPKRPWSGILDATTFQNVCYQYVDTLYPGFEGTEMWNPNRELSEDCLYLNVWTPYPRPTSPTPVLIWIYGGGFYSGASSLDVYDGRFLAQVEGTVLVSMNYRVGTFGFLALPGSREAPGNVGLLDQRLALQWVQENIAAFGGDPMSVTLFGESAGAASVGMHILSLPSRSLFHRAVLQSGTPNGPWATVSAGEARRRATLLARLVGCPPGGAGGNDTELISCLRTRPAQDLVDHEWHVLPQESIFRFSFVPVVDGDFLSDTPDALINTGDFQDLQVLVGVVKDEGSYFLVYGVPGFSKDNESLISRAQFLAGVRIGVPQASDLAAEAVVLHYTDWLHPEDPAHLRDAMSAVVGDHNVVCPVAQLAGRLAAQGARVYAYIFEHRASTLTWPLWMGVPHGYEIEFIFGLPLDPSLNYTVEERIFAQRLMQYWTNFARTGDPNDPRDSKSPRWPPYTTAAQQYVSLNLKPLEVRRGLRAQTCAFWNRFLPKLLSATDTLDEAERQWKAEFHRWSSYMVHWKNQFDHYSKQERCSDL

Another series in a line: in vivo. Particulars: rat, ip.
Series [3] addresses Sodium-dependent dopamine transporter (Rattus norvegicus, UniProt P23977). In kind it is functional.
Description: Inhibition of the reuptake of dopamine in rat corpora striata.
The species named for series [4] is Mus musculus. Format: functional. Particulars: at […].
Description: Reversal of scopolamine-induced memory impairment in mice at 0.31 mg/Kg administered subcutaneously.
Series [5] is filed under the species Mus musculus. Format: functional. Particulars: at 0.16 mg/kg.
Description: Reversal of scopolamine-induced memory impairment in mice at 0.16 mg/Kg administered subcutaneously.
The species entered for series [6] is Mus musculus. Format: functional. Particulars: at 0.63 mg/kg.
Description: Reversal of scopolamine-induced memory impairment in mice at 0.63 mg/Kg administered subcutaneously.
For series [7], the species on record is Mus musculus. In kind it is functional. Particulars: at 2.5 mg/kg.
Description: Reversal of scopolamine-induced memory impairment in mice at 2.5 mg/Kg administered subcutaneously.
The species named for series [8] is Mus musculus. In kind it is functional. Particulars: at 5 mg/kg.
Description: Reversal of scopolamine-induced memory impairment in mice at 5 mg/Kg administered subcutaneously.
The species entered for series [9] is Mus musculus. In kind it is functional. Particulars: at 1.25 mg/kg.
Description: Reversal of scopolamine-induced memory impairment in mice at 1.25 mg/Kg administered subcutaneously.

The values below come from ChEMBL document CHEMBL1124555, “9-Amino-1,2,3,4-tetrahydroacridin-1-ols: synthesis and evaluation as potential Alzheimer's disease therapeutics” (J Med Chem, 1989).

Some results are limits rather than exact numbers.

Broadly, the IC50 is the concentration that gives 50% inhibition. A low value points to inhibition by little substance. A word on the LD50: it is the dose expected to kill half of the subjects tested. A low value points to greater toxicity.

Sequence of Norepinephrine transporter (Q9WTR4 whole entry): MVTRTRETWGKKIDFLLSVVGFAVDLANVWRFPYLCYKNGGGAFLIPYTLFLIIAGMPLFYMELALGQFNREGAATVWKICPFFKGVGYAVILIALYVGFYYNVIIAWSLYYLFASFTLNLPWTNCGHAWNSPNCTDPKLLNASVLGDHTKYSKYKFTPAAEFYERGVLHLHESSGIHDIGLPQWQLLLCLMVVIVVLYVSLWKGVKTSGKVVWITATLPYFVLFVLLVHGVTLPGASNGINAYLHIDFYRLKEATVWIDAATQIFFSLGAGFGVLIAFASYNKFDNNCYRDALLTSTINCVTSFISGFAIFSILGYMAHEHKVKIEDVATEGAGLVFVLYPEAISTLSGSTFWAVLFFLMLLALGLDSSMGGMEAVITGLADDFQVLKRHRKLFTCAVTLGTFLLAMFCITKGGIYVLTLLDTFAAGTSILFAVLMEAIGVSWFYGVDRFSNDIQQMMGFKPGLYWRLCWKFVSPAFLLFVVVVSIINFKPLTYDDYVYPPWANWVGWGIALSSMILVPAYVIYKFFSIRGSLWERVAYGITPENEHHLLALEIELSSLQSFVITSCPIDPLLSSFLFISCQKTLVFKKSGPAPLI
Sequence of Sodium-dependent serotonin transporter (P31652 whole entry): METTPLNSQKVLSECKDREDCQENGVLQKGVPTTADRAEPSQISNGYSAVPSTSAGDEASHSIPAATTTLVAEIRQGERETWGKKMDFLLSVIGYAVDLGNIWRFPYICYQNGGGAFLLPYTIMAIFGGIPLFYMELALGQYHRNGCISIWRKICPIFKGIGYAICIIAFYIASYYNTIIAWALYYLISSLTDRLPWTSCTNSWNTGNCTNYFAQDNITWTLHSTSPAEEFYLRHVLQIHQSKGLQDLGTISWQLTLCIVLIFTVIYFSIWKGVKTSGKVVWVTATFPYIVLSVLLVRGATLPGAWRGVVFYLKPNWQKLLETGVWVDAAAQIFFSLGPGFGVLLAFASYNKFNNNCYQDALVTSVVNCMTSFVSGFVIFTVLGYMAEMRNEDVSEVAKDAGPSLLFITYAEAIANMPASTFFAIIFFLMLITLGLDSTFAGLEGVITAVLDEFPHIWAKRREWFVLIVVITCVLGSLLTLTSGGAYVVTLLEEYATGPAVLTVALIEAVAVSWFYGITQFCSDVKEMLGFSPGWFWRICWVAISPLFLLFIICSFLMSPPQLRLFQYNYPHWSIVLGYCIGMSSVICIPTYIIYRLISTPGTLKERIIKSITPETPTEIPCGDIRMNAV
Sequence of Sodium-dependent dopamine transporter (P23977 whole entry): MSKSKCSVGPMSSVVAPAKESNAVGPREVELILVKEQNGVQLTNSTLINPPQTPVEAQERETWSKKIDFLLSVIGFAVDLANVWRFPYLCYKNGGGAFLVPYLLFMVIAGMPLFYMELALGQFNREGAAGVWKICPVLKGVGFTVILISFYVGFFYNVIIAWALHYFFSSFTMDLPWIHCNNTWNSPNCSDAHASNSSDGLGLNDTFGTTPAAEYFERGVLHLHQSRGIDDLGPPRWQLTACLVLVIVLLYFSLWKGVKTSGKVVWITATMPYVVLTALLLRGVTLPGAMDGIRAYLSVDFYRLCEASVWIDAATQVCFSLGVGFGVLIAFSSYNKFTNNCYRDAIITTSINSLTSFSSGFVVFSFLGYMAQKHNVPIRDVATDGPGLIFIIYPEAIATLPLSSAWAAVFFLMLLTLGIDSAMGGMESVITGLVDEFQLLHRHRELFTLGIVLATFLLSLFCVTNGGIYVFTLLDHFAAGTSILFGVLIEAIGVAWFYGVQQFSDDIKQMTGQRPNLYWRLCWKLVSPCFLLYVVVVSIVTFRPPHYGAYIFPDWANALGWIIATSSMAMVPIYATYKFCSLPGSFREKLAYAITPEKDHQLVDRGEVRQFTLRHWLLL
Description for Acetylcholinesterase: In vitro inhibition against acetylcholinesterase in rat striata.
Description for in vivo: Toxicity evaluated in rats after intraperitoneal administration.

As for `O=C(O)/C=C/C(=O)O.OC1CCCc2nc3ccccc3c(NCc3cccs3)c21` (stereo not drawn), the IC50 in series [1] came to 20 µM; in series [2] it was 0.29 µM; at Acetylcholinesterase, 15.3 µM; in series [3], 2.4 µM. The LD50 in “in vivo” was > 80 mg/kg.

Consider `O=C(O)/C=C/C(=O)O.OC1CCCc2nc3ccccc3c(NCc3c(F)c(F)c(F)c(F)c3F)c21` (stereo not drawn), for which the Animals amounted to 7% in the series filed under Mus musculus [4]; 7% in the series filed under Mus musculus [5]; 7% in the series filed under Mus musculus [6]; 0% in the series filed under Mus musculus [7]; 20% in the series filed under Mus musculus [8]; 13% in the series listed under Mus musculus [9]. Moreover, the half-inhibitory concentration (IC50) in series [2] amounted to 11 µM; against Acetylcholinesterase it was 12.6 µM. Besides, the 50% lethal dose (LD50) in the series “in vivo” is > 80 mg/kg.

In the case of `O=C(O)/C=C/C(=O)O.OC1CCCc2nc3ccccc3c(NCCCC(c3cccc(F)c3)c3cccc(F)c3)c21` (stereo not drawn), the IC50 on Acetylcholinesterase was found to be 63 µM. In addition, the 50% lethal dose (LD50) in the series “in vivo” is > 80 mg/kg.

`Nc1c2c(nc3cc(Cl)ccc13)CCCC2O` (stereo not drawn): the Animals in the series filed under Mus musculus [4] worked out at 7%; in the series listed under Mus musculus [5], 7%; in the series listed under Mus musculus [6], 0%; in the series filed under Mus musculus [7], 0%; in the series listed under Mus musculus [8], 16%; in the series filed under Mus musculus [9], 7%. Further, the half-maximal inhibitory concentration (IC50) is > 20 µM in [1], > 20 µM in series [2], 0.0117 µM against Acetylcholinesterase and > 20 µM in series [3]. Moreover, the LD50 in “in vivo” was > 10 mg/kg.

With `COc1ccc(CNc2c3c(nc4ccccc24)CCCC3O)cc1` (stereo not drawn), the IC50 in [1] amounted to 5 µM; in series [2], 25 µM; on Acetylcholinesterase, 10.9 µM; in series [3] it was 5.3 µM. Also, the median lethal dose (LD50) in the series “in vivo” is > 80 mg/kg.

With `CN(C)CCNc1c2c(nc3ccccc13)CCCC2O` (stereo not drawn), it took 7.68 µM to reach half-maximal inhibition on Acetylcholinesterase (IC50). The median lethal dose (LD50) in the series “in vivo” is > 80 mg/kg.

Turning to `OC1CCCc2nc3ccccc3c(NCc3ccc(C(F)(F)F)cc3)c21` (stereo not drawn), the Animals was 8% in the series listed under Mus musculus [4]; 22% in the series filed under Mus musculus [5]; 7% in the series listed under Mus musculus [6]; 0% in the series filed under Mus musculus [7]; 20% in the series filed under Mus musculus [8]; 15% in the series filed under Mus musculus [9]. Besides, the IC50 in [1] came to 6.6 µM; in series [2], 0.27 µM; at Acetylcholinesterase, 18.1 µM; in series [3], 2.4 µM. Besides, the median lethal dose (LD50) in the series “in vivo” was > 80 mg/kg.

Regarding `OC1CCCc2nc3ccccc3c(NCc3ccccc3Cl)c21` (stereo not drawn), the Animals stood at 27% in the series filed under Mus musculus [4]; 0% in the series filed under Mus musculus [5]; 7% in the series listed under Mus musculus [6]; 13% in the series filed under Mus musculus [7]; 7% in the series listed under Mus musculus [8]; 27% in the series filed under Mus musculus [9]. In addition, the IC50 in [1] amounted to 9.3 µM; in series [2], 0.043 µM; against Acetylcholinesterase it was 10.3 µM; in [3], 0.13 µM. Also, the LD50 in the series “in vivo” is > 80 mg/kg.

With `Nc1c2c(nc3cc(F)ccc13)CCCC2O` (stereo not drawn), the Animals in the series filed under Mus musculus [4] is on record as 29%; in the series listed under Mus musculus [5], 73%; in the series listed under Mus musculus [6], 20%; in the series filed under Mus musculus [7], 33%; in the series listed under Mus musculus [8], 40%; in the series listed under Mus musculus [9] it was 20%. Moreover, the IC50 is > 10 µM in [2] and 0.292 µM at Acetylcholinesterase. In the series “in vivo”, this compound had a 50% lethal dose (LD50) of 40 mg/kg.

Consider `OC1CCCc2nc3ccccc3c(NCCCC(c3ccc(F)cc3)c3ccc(F)cc3)c21` (stereo not drawn), for which, on Acetylcholinesterase, half-maximal inhibition (IC50) required 87.8 µM. Moreover, in the series “in vivo”, the LD50 is > 80 mg/kg.

At Acetylcholinesterase, `OC1CCCc2nc3cc(C(F)(F)F)ccc3c(NCc3ccccc3)c21` (stereo not drawn) showed an IC50 of 68.2 µM. Moreover, the LD50 in “in vivo” was > 80 mg/kg.

At Acetylcholinesterase, `COc1ccc2c(N)c3c(nc2c1)CCCC3O` (stereo not drawn) returned an IC50 of 2 µM. In addition, the LD50 in the series “in vivo” was > 80 mg/kg.

As for `OC1CCCc2nc3ccccc3c(NCCc3ccccc3)c21` (stereo not drawn), the Animals in the series listed under Mus musculus [4] stood at 20%; in the series listed under Mus musculus [5], 7%; in the series filed under Mus musculus [6] it was 0%; in the series listed under Mus musculus [7], 0%; in the series listed under Mus musculus [8], 0%; in the series filed under Mus musculus [9], 23%. For the same compound, the IC50 came to 7.7 µM in series [1], 1.4 µM in series [2], 3.39 µM on Acetylcholinesterase and 4.7 µM in series [3]. Besides, in “in vivo”, the median lethal dose (LD50) is > 80 mg/kg.

For the compound `Nc1c2c(nc3ccccc13)CCC2O` (stereo not drawn), the Animals in the series listed under Mus musculus [4] was 13%; in the series listed under Mus musculus [5] it was 13%; in the series filed under Mus musculus [6] it was 0%; in the series filed under Mus musculus [7] it was 7%; in the series filed under Mus musculus [8] it was 7%; in the series filed under Mus musculus [9], 0%. Besides, the IC50 at Acetylcholinesterase amounted to 5.97 µM. In addition, the LD50 in “in vivo” is > 80 mg/kg.

For `OC1CCCc2nc3cc(Cl)ccc3c(NCc3ccccc3)c21` (stereo not drawn), the Animals is recorded as 13% in the series filed under Mus musculus [4]; 0% in the series listed under Mus musculus [5]; 7% in the series listed under Mus musculus [6]; 7% in the series filed under Mus musculus [7]; 0% in the series listed under Mus musculus [8]; 7% in the series filed under Mus musculus [9]. In addition, the IC50 turned out to be 15 µM in [1], 0.82 µM in series [2], 1.3 µM on Acetylcholinesterase and 1.3 µM in series [3]. Moreover, in the series “in vivo”, the LD50 was > 80 mg/kg.

On to `OC1CCCc2nc3ccccc3c(NCc3ccc(Cl)cc3)c21` (stereo not drawn), for which the IC50 turned out to be 5.7 µM in series [1], 1.1 µM in series [2], 27.2 µM against Acetylcholinesterase and 9.8 µM in series [3]. Also, in the series “in vivo”, the median lethal dose (LD50) is > 80 mg/kg.

`OC1CCCc2nc3ccccc3c(NCc3cccc(Cl)c3)c21` (stereo not drawn): 13.3 µM corresponded to half-maximal inhibition on Acetylcholinesterase (IC50). The median lethal dose (LD50) in the series “in vivo” is > 80 mg/kg.

On to `Cc1ccc(CNc2c3c(nc4ccccc24)CCCC3O)cc1` (stereo not drawn), for which the concentration for half-maximal inhibition (IC50) in series [1] was found to be 8 µM; in series [2], 1.1 µM; against Acetylcholinesterase it was 21 µM; in series [3] it was 2.2 µM. Also, the 50% lethal dose (LD50) in the series “in vivo” is > 80 mg/kg.

On to `OC1CCCc2nc3ccccc3c(NCCCC(c3ccccc3)c3ccccc3)c21` (stereo not drawn), for which the Animals in the series filed under Mus musculus [4] is 6%; in the series listed under Mus musculus [5] it was 20%; in the series filed under Mus musculus [6], 6%; in the series filed under Mus musculus [7] it was 0%; in the series filed under Mus musculus [8], 6%; in the series listed under Mus musculus [9], 13%. The IC50 in series [1] amounted to 5.7 µM; in series [2] it was 1.5 µM; on Acetylcholinesterase it was 49.3 µM; in [3], 2.1 µM. The median lethal dose (LD50) in the series “in vivo” is > 80 mg/kg.

As for `COc1cccc(CNc2c3c(nc4ccccc24)CCCC3O)c1` (stereo not drawn), the Animals in the series filed under Mus musculus [4], in the series filed under Mus musculus [5], in the series listed under Mus musculus [6], in the series filed under Mus musculus [7], in the series filed under Mus musculus [8] and in the series listed under Mus musculus [9] was 0% in each case. In addition, the IC50 came out at 6.2 µM in series [1], 1.5 µM in series [2], 21.1 µM against Acetylcholinesterase and 2.1 µM in series [3]. The median lethal dose (LD50) in the series “in vivo” was > 80 mg/kg.

Consider `OC1CCCc2nc3cc(F)ccc3c(NCc3ccccc3C(F)(F)F)c21` (stereo not drawn), for which the Animals stood at 20% in the series listed under Mus musculus [4]; 0% in the series filed under Mus musculus [5]; 7% in the series filed under Mus musculus [6]; 0% in the series listed under Mus musculus [7]; 13% in the series filed under Mus musculus [8]; 0% in the series filed under Mus musculus [9]. The IC50 in series [1] turned out to be 20 µM; in series [2], 0.54 µM; against Acetylcholinesterase it was 20.1 µM; in [3], 0.31 µM. The median lethal dose (LD50) in “in vivo” was > 80 mg/kg.

Turning to `OC1CCCc2nc3ccccc3c(NCCCOc3ccccc3)c21` (stereo not drawn), the Animals in the series filed under Mus musculus [4] amounted to 0%; in the series listed under Mus musculus [5] it was 0%; in the series listed under Mus musculus [6], 0%; in the series filed under Mus musculus [7], 7%; in the series listed under Mus musculus [9], 13%. The same compound gave a concentration for half-maximal inhibition (IC50) on Acetylcholinesterase of 3.98 µM. Moreover, the LD50 in “in vivo” was > 80 mg/kg.
